Each structure is given as a SMILES string. Where only a bound is given, the exact number is not on record here.

For the compound `COc1cccc(CC(CO)NCCC(c2ccccc2)c2ccccc2)c1` (stereo unspecified), the melting point (commonly the temperature, or range, at which the solid turns liquid) lay in the range of 89 to 91 °C.

As for `CC(C)(C)OC(=O)NCc1ccc(CC(=O)Nc2ccc(Nc3cc(-c4cccc5c4oc4ccccc45)ncn3)cc2)cc1`, the melting point fell in the range of 238 to 240 °C.

For `O=S(=O)(/C(=C\c1ccccc1)CO)c1ccccc1`, the melting point was 67.5 to 69 °C.

In turn, `N#Cc1cc2cc(C(O)(C(F)(F)F)C(F)(F)F)ccc2[nH]1` showed a melting point of 183 to 185 °C.

Consider `O=[N+]([O-])c1ccc(SC2SCC(O)C(O)C2O)cc1` (stereo unspecified), for which the melting point stood at 168 °C.

For `CC(=O)Nc1ccc2c(c1)nc(/C=C/c1ccccc1)n2-c1ccccn1`, the melting point was 105 to 107 °C.

`CN1C(=O)CCC(C)(C)c2ccc(NC(=O)c3ccc(C(=O)O)cc3)cc21` showed a melting point above 250 °C.

As to `COC(=O)[C@H](Cc1cccc(O)c1)NC(=O)OC(C)(C)C`, the melting point is 61 to 65 °C.

In turn, `Cc1cc(=O)c(-c2ccc(Oc3cccc(OC(F)(F)F)c3)cc2)c(C)[nH]1` displayed a melting point of 244 to 246 °C.

Compound `CSc1nnc(-c2ccc3ncn(-c4ccc(OC(F)F)cc4)c3c2)o1` came in with a melting point of 202 to 203 °C.

Regarding `COc1cc(/C=C/C=C/C(=O)NCCCC2CNCCC2c2c[nH]c3ccccc23)cc(OC)c1O` (stereo unspecified), the melting point was in the range of 176 to 179 °C.

As for `O=C(COc1ccccc1)N[C@@H](Cc1ccc(OCCc2coc(-c3ccccc3)n2)cc1)C(=O)O`, the melting point lay within 94 to 97 °C.

For the compound `N#CC(c1ccccc1)(c1ccccc1)[C@H]1CCCN(CCc2ccc(CO)cc2)C1`, the melting point is 110 to 114 °C.

In the case of `Cc1nnc2ccc(-c3ccc(Cl)cc3)cn12`, the melting point is 192 to 194 °C.

Take `CNC(=O)ON=C1N=C(C2CCCCC2)C(C)(C)S1`: the melting point was 158 to 160 °C.

For the compound `CCOC(=O)c1ncn2c(-c3cccnc3)ccnc12`, the melting point lay in the range of 184 to 186 °C.

The compound `CCCc1nn(-c2ccc(C(F)(F)F)cn2)cc1CCCCOc1nn(C)cc1CC(=O)O` gave a melting point of 95 to 97 °C.

`CCOC(=O)c1cc(=O)c(-c2ccc(OC)cc2)co1` displayed a melting point of 121 to 123 °C.

`O=c1oc(-c2ccccc2)cc(O)c1Oc1ccccc1` displayed a melting point of 215 to 219 °C.

Compound `COC(=O)c1cc(-c2ccc3cc4c(cc3c2)C(C)(C)CCC4(C)C)c[nH]1` returned a melting point of 140 to 143 °C.

Consider `O=C(OCCO)c1ccc(Cl)c([N+](=O)[O-])c1`, for which the melting point is 102 to 104 °C.

Compound `Cc1cc(C(=S)Cl)c(Cl)cc1Cl` gave a melting point of 94 to 95 °C.

Turning to `O=C1CN(c2ccccc2)C(=O)C1c1ccccc1` (stereo unspecified), the melting point fell in the range of 285 to 287 °C.

In the case of `Cc1cc(O)c(C)c(C)c1NC=O`, the melting point lay in the range of 219 to 220 °C.

In the case of `CCOc1ccccc1NC=C1C(=O)N(c2ccc(S(=O)(=O)N3CCCCC3)cc2)N=C1C`, the melting point worked out at 252 °C.

`CCCCOc1ccc(S(=O)(=O)N2CC(N(Cc3ccccc3)CC(O)COc3cccc4[nH]c5ccccc5c34)C2)cc1` (stereo unspecified) showed a melting point of 65 to 67 °C.

In turn, `CCC(=O)c1c(C)[nH]c(-c2ccccc2)c1N` registered a melting point of 166 to 168 °C.

Compound `CNC(=O)Nc1n[nH]c(-c2ccncc2)c1-c1ccc(F)cc1` registered a melting point of 212 to 213 °C.

As for `Cc1ccccc1-c1nc(-c2cccc(Cl)c2)nn1C`, the melting point fell in the range of 77 to 78 °C.

Turning to `CCC(=O)OCc1c(C)cc([N+](=O)[O-])c(NC(CC)CC)c1[N+](=O)[O-]`, the melting point fell in the range of 27 to 29 °C.

As for `COc1cc2ncnc(N3CCc4cc([N+](=O)[O-])c(Cl)cc43)c2cc1OC`, the melting point lay in the range of 276 to 278 °C.

As for `CNC(=S)N(C)Cc1ccc(Cl)nc1`, the melting point was in the range of 109 to 110 °C.

On to `COC(=O)c1ccc2[nH]cc(CCCCN3CCN(c4ccc5c(c4)OCCO5)CC3)c2c1`, for which the melting point fell in the range of 177 to 179 °C.

Compound `O=[N+]([O-])c1ccccc1OCc1ccc2ccccc2n1` yielded a melting point of 121 to 122 °C.

Compound `COC(=O)CC1(CN=C=O)CCCCCC1` returned a melting point of 69 to 72 °C.

`CC1CNCCC1n1c(=O)[nH]c2cc(Cl)ccc21` (stereo unspecified): the melting point was determined as 199 °C.

The record behind these values is a melting point compilation (Tetko et al.; mined from patent text by program, amines drawn as free bases though some values may be those of a salt).
